Laboratory results from US9006261B2, “Fluorescent perylene derivatives for direct detection of heparin” (priority 2009, dated 2015).

Experiment: Fluorescence response to Dalteparin sodium in buffer, serum and plasma
Assay type: binding
Conditions: fluorescence of perylene diimide derivative/LMWH mixture
Procedure: The response of the perylene diimide derivative to heparin was additionally studied using Dalteparin sodium (0.4-0.8 IU/mL), a clinically important LMWH preparation with a mean molecular weight of 5000 g/mol. Fluorescence was recorded with a portable fluorometer, equipped with a 485 nm excitation filter and a 665 nm cutoff emission filter. The latter filter offered good signal-to-background ratio since serum/plasma autofluorescence is very low above 665 nm. The fluorescence of the perylene diimide derivative decreased approximately linearly (FIG. 4c) with increasing LMWH concentration, in buffered solution. The binding ration was calculated to be one perylene diimide derivative/2 disaccharides of heparin. Solutions containing 20 vol % serum or plasma required an only slightly larger (about 1.1-fold) LMWH concentration to trigger the same relative fluorescence decrease as observed in buffered solution.

reversibility of LMWH binding on addition of protamine: fluorescence was restored
Substance: protamine
